The values below come from PubChem BioAssay AID1259411 (Chemical Carcinogenesis Research Information System (CCRIS), 2018).

Calls of active or inactive are those of the source. How the calls were made is not given here.

This series has as its system rodent carcinogenicity bioassays, tumor incidence. Briefly: CCRIS carcinogenicity studies. The procedure, abridged:
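Archive of carcinogenicity, mutagenicity, tumor promotion and tumor inhibition results drawn from journals, NCI reports and other sources, expert-reviewed; covers 1985-2011 and is no longer updated.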

For the compound `O=P(O)(OCC(Br)CBr)OCC(Br)CBr` (stereo unspecified), the carcinogen call (Species: RAT, Strain/Sex: WISTAR/FEMALE, Route: ORAL, Dose: 0, 80, 400, 2000 IN DIET FOR 24 MO (STUDY DURATION: 24 MO), Dose: 0, 80, 400, 2000 IN DIET FOR 24 MO (STUDY DURATION: 24 MO), Tumor Site: Type of Lesion: LIVER: HEPATOCELLULAR CARCINOMA, SMALL INTESTINE: ADENOCARCINOMA, FORESTOMACH: PAPILLOMA, ESOPHAGUS: PAPILLOMA, Tumor Site: Type of Lesion: LIVER: HEPATOCELLULAR CARCINOMA, SMALL INTESTINE: ADENOCARCINOMA, FORESTOMACH: PAPILLOMA, ESOPHAGUS: PAPILLOMA) was “active; positive” and the carcinogen call (Species: RAT, Strain/Sex: WISTAR/MALE, Route: ORAL, Dose: 0, 80, 400, 2000 IN DIET FOR 24 MO (STUDY DURATION: 24 MO), Dose: 0, 80, 400, 2000 IN DIET FOR 24 MO (STUDY DURATION: 24 MO), Tumor Site: Type of Lesion: SMALL INTESTINE: ADENOCARCINOMA, FORESTOMACH: PAPILLOMA, ESOPHAGUS: PAPILLOMA, Tumor Site: Type of Lesion: SMALL INTESTINE: ADENOCARCINOMA, FORESTOMACH: PAPILLOMA, ESOPHAGUS: PAPILLOMA) is “active; positive”.
On to `Cc1c2ccccc2c(C=O)c2ccc3ccccc3c12`, for which the carcinogen call was “active; positive (15%)” (Species: RAT, Strain/Sex: SPRAGUE-DAWLEY/FEMALE (13/GROUP), Route: SUBCUTANEOUS, Dose: 0.2 UMOL 3X A WK FOR 20 DOSES (STUDY DURATION: 52 WK), Tumor Site: Type of Lesion: MAMMARY: ADENOCARCINOMA) and “active; positive (85%)” (Species: RAT, Strain/Sex: SPRAGUE-DAWLEY/FEMALE (13/GROUP), Route: SUBCUTANEOUS, Dose: 0.2 UMOL 3X A WK FOR 20 DOSES (STUDY DURATION: 52 WK), Tumor Site: Type of Lesion: SUBCUTANEOUS, SARCOMA).
Regarding `CC1=CC(C)(C)Nc2ccccc21`, the carcinogen call is “inactive; negative” (Species: MOUSE, Strain/Sex: B6C3F1/FEMALE, Route: DERMAL, Dose: 0, 3.6, 6, 10 MG/KG BW IN ACETONE 5 D/WK FOR 103 WK (STUDY DURATION: 103 WK), Dose: 0, 3.6, 6, 10 MG/KG BW IN ACETONE 5 D/WK FOR 103 WK (STUDY DURATION: 103 WK)); “inactive; negative” (Species: MOUSE, Strain/Sex: B6C3F1/MALE, Route: DERMAL, Dose: 0, 3.6, 6, 10 MG/KG BW IN ACETONE 5 D/WK FOR 103 WK (STUDY DURATION: 103 WK), Dose: 0, 3.6, 6, 10 MG/KG BW IN ACETONE 5 D/WK FOR 103 WK (STUDY DURATION: 103 WK)); “inactive; negative” (Species: RAT, Strain/Sex: F344/FEMALE, Route: DERMAL, Dose: 0, 36, 60, 100 MG/KG BW IN ACETONE 5 D/WK FOR 104 WK (STUDY DURATION: 106 WK), Dose: 0, 36, 60, 100 MG/KG BW IN ACETONE 5 D/WK FOR 104 WK (STUDY DURATION: 106 WK)); “active; positive” (Species: RAT, Strain/Sex: F344/MALE, Route: DERMAL, Dose: 0, 36, 60, 100 MG/KG BW IN ACETONE 5 D/WK FOR 103 WK (STUDY DURATION: 105 WK), Dose: 0, 36, 60, 100 MG/KG BW IN ACETONE 5 D/WK FOR 103 WK (STUDY DURATION: 105 WK), Tumor Site: Type of Lesion: KIDNEY(RENAL TUBULE): ADENOMA OR CARCINOMA).
For `Nc1c(Cl)cc(Cl)cc1Cl`, for the setting “Species: MOUSE, Strain/Sex: CD-1/MALE, Route: ORAL, Dose: 6000, 12000 PPM IN DIET, Tumor Site: Type of Lesion: BLOOD VESSELS”, the carcinogen call is “active; positive”.
With `CCOS(C)(=O)=O`, the carcinogen call is, setting by setting: (Species: MOUSE, Route: INTRAPERITONEAL, Tumor Site: Type of Lesion: LUNG, KIDNEY) “active; positive”; (Species: MOUSE, Route: SUBCUTANEOUS, Tumor Site: Type of Lesion: LUNG) “active; positive”; (Species: MOUSE, Strain/Sex: ICR/FEMALE, Route: SUBCUTANEOUS, Dose: 0, 20 UMOL/MOUSE IN TRIOCTANOIN INTO LEFT FLANK, 1/WK FOR 52 WK (STUDY DURATION: 450 D), Tumor Site: Type of Lesion: THYMUS GLAND: LYMPHOMA, LUNG: ADENOMA) “active; positive”; (Species: RAT, Route: INTRAPERITONEAL, Tumor Site: Type of Lesion: LUNG, KIDNEY) “active; positive”.
`CCOC(=O)C(C(=O)OCC)=C(NO)c1ccccc1`: the carcinogen call is, setting by setting: (Species: Mouse, Strain/Sex: Swiss Albino/Female (60/sex/group), Route: Oral, Dose: 0, 10, 30, 100 ppm in feed for 18 mo, Dose: 0, 10, 30, 100 ppm in feed for 18 mo) “inactive; negative; purity 97%”; (Species: Mouse, Strain/Sex: Swiss Albino/Male (60/sex/group), Route: Oral, Dose: 0, 10, 30, 100 ppm in feed for 18 mo, Dose: 0, 10, 30, 100 ppm in feed for 18 mo, Tumor Site: Type of Lesion: Liver: Hepatocellular adenoma (2/47, 4/48, 3/49, 5/53), Hepatocellular carcinoma (0/47, 0/48, 2/49, 4/53), Combined (2/4, Tumor Site: Type of Lesion: Liver: Hepatocellular adenoma (2/47, 4/48, 3/49, 5/53), Hepatocellular carcinoma (0/47, 0/48, 2/49, 4/53), Combined (2/4) “active; positive (statistically significant trend but not incidence); purity 97%”; (Species: Rat, Strain/Sex: Sprague-Dawley /Female (70/sex/group in dosed animals; 105 controls/sex), Route: Oral, Dose: 0, 60, 190, 600 ppm in feed for 104 wks, Dose: 0, 60, 190, 600 ppm in feed for 104 wks) “inactive; negative: purity 98.5%; liver: nonneoplastic liver lesions (eosinophilic cellula”; (Species: Rat, Strain/Sex: Sprague-Dawley /Male (70/sex/group in dosed animals; 105 controls/sex), Route: Oral, Dose: 0, 60, 190, 600 ppm in feed for 104 wks, Dose: 0, 60, 190, 600 ppm in feed for 104 wks) “inactive; negative: purity 98.5%; liver: nonneoplastic liver lesions (eosinophilic cellula”.
As to `ClC1C(Cl)C(Cl)C(Cl)C(Cl)C1Cl` (stereo unspecified), the carcinogen call (Species: MOUSE, Strain/Sex: B6C3F1/FEMALE, Route: ORAL, Dose: 0, 80, 160 PPM IN DIET FOR 80 WK (STUDY DURATION: 90-91 WK), Dose: 0, 80, 160 PPM IN DIET FOR 80 WK (STUDY DURATION: 90-91 WK)) is “inactive; negative”; the carcinogen call (Species: MOUSE, Strain/Sex: CF-1/MALE,FEMALE, Route: ORAL, Dose: 200 MG/KG IN DIET, Tumor Site: Type of Lesion: LIVER: BENIGN TUMOR OR MALIGNANT TUMOR) is “active; positive”; the carcinogen call (Species: MOUSE, Strain/Sex: CF-1/MALE,FEMALE, Route: ORAL, Dose: 400 MG/KG IN DIET, Tumor Site: Type of Lesion: LIVER: BENIGN TUMOR OR MALIGNANT TUMOR) was “active; positive”; the carcinogen call (Species: MOUSE, Strain/Sex: DD/MALE, Route: ORAL, Dose: 0, 6.6, 66, 660 PPM IN BASAL DIET UNTIL SACRIFICE AT 24 WK (STUDY DURATION: 24 WK), Dose: 0, 6.6, 66, 660 PPM IN BASAL DIET UNTIL SACRIFICE AT 24 WK (STUDY DURATION: 24 WK), Tumor Site: Type of Lesion: LIVER: HEPATOMA) was “active; positive”; the carcinogen call (Species: MOUSE, Strain/Sex: MALE,FEMALE, Route: ORAL, Tumor Site: Type of Lesion: LIVER: BENIGN TUMOR OR MALIGNANT TUMOR) was “active; positive”; the carcinogen call (Species: RAT, Strain/Sex: OSBORNE-MENDEL/FEMALE, Route: ORAL, Dose: 0, 135, 270 PPM TWA, IN DIET FOR 80 WK (STUDY DURATION: 108-110 WK), Dose: 0, 135, 270 PPM TWA, IN DIET FOR 80 WK (STUDY DURATION: 108-110 WK)) is “inactive; negative”. Moreover, the carcinogen call was “inactive; negative” (Species: RAT, Strain/Sex: OSBORNE-MENDEL/MALE, Route: ORAL, Dose: 0, 236, 472 PPM TWA, IN DIET FOR 80 WK (STUDY DURATION: 109-110 WK), Dose: 0, 236, 472 PPM TWA, IN DIET FOR 80 WK (STUDY DURATION: 109-110 WK)); “inactive; negative” (Species: Rat, Strain/Sex: Wistar/Female (50/Group), Route: Oral, Dose: 0, 0.06, 0.57, 5.6, 23.1 mg/kg/day of 99.5-99.7% lindane in diet for 18 mo, study duration 18 mo, Dose: 0, 0.06, 0.57, 5.6, 23.1 mg/kg/day of 99.5-99.7% lindane in diet for 18 mo, study duration 18 mo); “inactive; negative” (Species: Rat, Strain/Sex: Wistar/Male (50/Group), Route: Oral, Dose: 0, 0.05, 0.45, 4.5, 18.7 mg/kg/day of 99.5-99.7% lindane in diet for 18 mo, study duration 18 mo, Dose: 0, 0.05, 0.45, 4.5, 18.7 mg/kg/day of 99.5-99.7% lindane in diet for 18 mo, study duration 18 mo).
Take `CN(CC(=O)O)N=O`: the carcinogen call was “active; positive” (Species: MOUSE, Route: INTRAPERITONEAL, Tumor Site: Type of Lesion: LIVER); “active; positive” (Species: MOUSE, Route: ORAL, Tumor Site: Type of Lesion: NASAL CAVITY); “active; positive” (Species: RAT, Route: ORAL, Tumor Site: Type of Lesion: ESOPHAGUS).
With `CCCCN(N=O)C(CCC)OO` (stereo unspecified), the carcinogen call (Species: RAT, Strain/Sex: F344/MALE, Route: SUBCUTANEOUS, Dose: 38 UMOL/KG IN OLIVE OIL 1/WK FOR 10 WK, Tumor Site: Type of Lesion: INJECTION SITE: MALIGNANT FIBROUS HISTIOCYTOMA) was “active; positive”.
Take `O=[N+]([O-])c1ccc2ncccc2c1`: where the note is “Species: RAT, Strain/Sex: F344/MALE,FEMALE, Route: ORAL, Dose: 0.05% IN DIET FOR 2 YR”, the carcinogen call was “inactive; negative”.
